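Five concentrations, 48 hours, 96-well plates. The concentration for 50% growth inhibition is given as GI50. The concentration for full growth arrest is given as TGI.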

This experiment has as its system MDA-MB-468 breast. As to the kind of experiment: NCI-60 cell line screen, 48 h.
Turning to `O=[N+]([O-])c1ccc(S(=O)Cc2ccccc2)c([N+](=O)[O-])c1` (configuration not stated), the GI50 is 1.7 µM and the TGI stood at 3.13 µM.
As to `CC(C)CNCC(O)COc1ccc(C(C)(C)c2ccc(OCC(O)CNCC(C)C)cc2)cc1` (configuration not stated), the GI50 is 2.18 µM and the TGI amounted to 4.91 µM.
For `COc1ccc(N2Cc3cnc(Nc4ccccc4)nc3N([C@@H]3CC[C@@H](O)C3)C2=O)cc1`, the GI50 is 6.65 µM and the TGI was more than 25 µM.
The corresponding values for `C=CCN(/C=C1/C(=O)O[C@H](COC)[C@@]2(C)C1=C(O)C(=O)C1=C2[C@H](OC(C)=O)C[C@]2(C)C(=O)CC[C@@H]12)CC=C` are 0.101 µM and 0.779 µM.
As for `CC[C@@]1(O)C[C@H](OC2CC(N(C)C)C(OC3CC(O)C(OC4CCC(=O)C(C)O4)C(C)O3)C(C)O2)c2c(cc3c(c2O)C(=O)c2c(O)cccc2C3=O)[C@H]1C(=O)OC` (some centres not stated), the GI50 is 0.017 µM and the TGI was determined as 0.123 µM.
Regarding `CC1(C)CC[C@H](Nc2ncc(C(F)(F)F)c(-c3c[nH]c4c(P(C)(C)=O)c(C#N)ccc34)n2)CN1`, the GI50 is 1.22 µM and the TGI amounted to 5.11 µM.
`C=C1SC(=Nc2c(C)cc(C)cc2C)N(C(=O)c2sc3ccccc3c2Cl)C12CCCCC2`: the GI50 is more than 100 µM and the TGI was more than 100 µM.
Turning to `Cc1ccc(/C(=N\N=C(N)N)c2ccccc2)cc1`, the GI50 is 0.426 µM and the TGI was determined as 5.83 µM.
In the case of `O=C(Nc1ccccc1)Nc1nc2ccc([N+](=O)[O-])cc2s1`, the GI50 is 0.755 µM and the TGI is 4.45 µM.
Regarding `O=C(/C=C/C12c3ccccc3C(c3ccccc31)C1C(=O)N(c3ccccc3)C(=O)C12)c1ccccc1` (configuration not stated), the GI50 was 1.87 µM and the TGI amounted to 7.71 µM.
Turning to `C[C@H](NC(=O)[C@@H]1CSSC[C@@H](NC(=O)c2nc3ccccc3cc2O)C(=O)NCC(=O)N1C)c1ccccc1`, the GI50 is 5.89 µM and the TGI is 13.2 µM.
For `Cc1cc(/C=C\c2ccc3ccccc3[n+]2C)c(O)c2ncccc12` the same measures were 0.316 µM and 2.23 µM.
As to `CCc1n(Cc2ccc3ccccc3n2)cc[n+]1Cc1ccc2ccccc2n1`, the TGI was 0.0994 µM.
For the compound `CCN(CC)CCNc1ccc([N+](=O)[O-])c2sc3ccccc3c(=O)c12`, the GI50 is 1.45 µM and the TGI was 5.07 µM.
As to `Cc1c(S(C)(=O)=O)c(-c2cc(F)cc(N3CCN(c4ccc(NS(=O)(=O)c5ccc(N[C@H](CCN6CCC(C(=O)OCCCP(=O)(O)O)CC6)CSc6ccccc6)c(S(=O)(=O)C(F)(F)F)c5)cc4)CC3)c2)c(-c2ccc(Cl)cc2)n1C(C)C`, the GI50 was more than 100 µM and the TGI was more than 100 µM.
In the case of `CCCCCCCNc1nc(C(=O)OCC)ncc1-c1ccc(C(F)(F)F)cc1`, the GI50 is 23.4 µM and the TGI amounted to 93.1 µM.
`FC(F)(F)c1cc(-c2nnc3n2N=C(N2CCCC2)CS3)cc(C(F)(F)F)c1`: the GI50 is 32 µM and the TGI is more than 50 µM.
For the compound `O=C1C(c2c[nH]c3ccccc23)=C(c2c[nH]c3ccccc23)C(=O)N1O`, the GI50 was more than 25 µM and the TGI was more than 25 µM.
On to `CN1CCN(c2ccc(NC(=O)c3nc4ccc5[nH]ncc5c4c4c3CCCC4)cc2C(F)(F)F)CC1`, for which the GI50 is 0.859 µM and the TGI is 1.98 µM.
Consider `O=Nc1c(-c2c(O)[nH]c3ccc([N+](=O)[O-])cc23)[nH]c2ccc(O)cc12`, for which the GI50 was 0.359 µM and the TGI turned out to be 2.85 µM.
Take `COc1ccc(Nc2ncc(Br)c(NCCCNC(=O)C3CCC3)n2)cc1`: the GI50 is 15.4 µM and the TGI was determined as 37 µM.
As to `COc1ccc(-c2nc3sc(-c4ccc(Cl)cc4)cn3n2)cc1`, the GI50 was 2.08 µM and the TGI is more than 50 µM.
Regarding `COc1cc2c(c(OC)c1OC)-c1ccc(N)c(=O)cc1[C@@H](NC(C)=O)CC2`, the GI50 is less than 0.01 µM.
For `CCOC(=O)C1(Br)C(c2ccccc2)NC(=O)NC1(C)Br` (configuration not stated), the GI50 is 24 µM and the TGI is 70.5 µM.
On to `COc1ccc2c(c1)c(CC(=O)[Se]CC#N)c(C)n2C(=O)c1ccc(Cl)cc1`, for which the GI50 was 1.2 µM and the TGI worked out at 3.2 µM.
For the compound `CCC(=O)O[C@H]1CC[C@H]2[C@@H]3CC[C@H]4CC(=O)[C@H](C)C[C@]4(C)[C@H]3CC[C@]12C`, the GI50 is 33.9 µM and the TGI was more than 100 µM.
Take `CCCc1c(CC)c(=N)c2ccccc2n1C`: the GI50 was 3.22 µM and the TGI was found to be 48.7 µM.
Turning to `Oc1ccc(C(c2ccc(O)cc2)c2ccc(Cl)cn2)cc1`, the GI50 was 0.116 µM and the TGI amounted to 0.577 µM.
On to `CCn1c(C(=O)N(C2CC2)C2CC2)cc2c3c(ncn3C)c(Nc3cc(C)n(C)n3)nc21`, for which the GI50 was more than 100 µM and the TGI is more than 100 µM.
Turning to `Clc1ccc(N2N=C(c3cccc(Nc4ccncc4)c3)CC2c2ccc3c(c2)OCO3)cc1` (configuration not stated), the GI50 was 1.59 µM and the TGI worked out at 3.08 µM.
Regarding `COc1ccccc1/C=C/[N+](=O)[O-]`, the GI50 is 1.65 µM and the TGI is 3.6 µM.
`CC(=O)N(O)CCCCCNC(=O)CCC(=O)N(O)CCCCCNC(=O)CCC(=O)N(O)CCCCCN(CCCCCCCCCC[P+](c1ccccc1)(c1ccccc1)c1ccccc1)CCCCCCCCCC[P+](c1ccccc1)(c1ccccc1)c1ccccc1`: the GI50 was 1.68 µM and the TGI came out at 5.41 µM.

For the origin of these results see PubChem BioAssay (NCI).
